From patent US20250101028A1, “HETEROCYCLIC COMPOUNDS, COMPOSITIONS THEREOF, AND METHODS OF TREATMENT THEREWITH” (BeiGene, Ltd., priority 2022, published 2025)

These compounds were tested against T1, GST-tagged GDP-loaded KRAS G12V (amino acids 1-169) (Homo sapiens, UniProt P01116, G12V) (assay: KRAS G12V probe displacement assay (TR-FRET)). Details: displacement of biotinylated probe 2 from GDP-loaded KRAS G12V.
T1 construct: GST-tagged GDP-loaded KRAS G12V (amino acids 1-169); made in house; host or cells: E. coli
Format: binding
How it was run: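 GST-tagged GDP-loaded KRAS 1-169 (WT 3 nM; G12V 2 nM final) preincubated 1 h at 24 °C with serially diluted compound in HEPES pH 7.5 buffer, then biotinylated probe added (probe 1 60 nM for WT; probe 2 2.5 nM for G12V), 1 h. Anti-GST-Tb/streptavidin-XL665 TR-FRET 665/620 ratio; IC50 by four-parameter fit.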

T1 sequence (P01116 1-169 isoform P01116-2 G12V): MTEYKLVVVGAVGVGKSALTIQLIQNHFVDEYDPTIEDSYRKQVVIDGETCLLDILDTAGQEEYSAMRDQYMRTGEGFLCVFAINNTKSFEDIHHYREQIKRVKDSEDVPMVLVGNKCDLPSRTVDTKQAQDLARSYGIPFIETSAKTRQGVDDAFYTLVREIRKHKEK

| Structure (SMILES) | IC50 |
| --- | --- |
| CC1(C)CCN1c1nc(OC[C@@]23CCCN2C[C@H](F)C3)nc2c(F)c(-c3ccc(F)c4sc(N)nc34)c(C(F)(F)F)cc12 [Example 36, 4-(4-(2,2-dimethylazetidin-1-yl)-8-fluoro-2-(((2R,7aS)-2-fluorotetrahydro-1H-pyrrolizin-7a(5H)-yl)methoxy)-6-(trifluoromethyl)quinazolin-7-yl)-7-fluorobenzo[d]thiazol-2-amine] | 19 nM |
| Nc1nc2c(-c3c(C(F)(F)F)cc4c(N5CCCC(CO)CC5)nc(OC[C@@]56CCCN5C[C@H](F)C6)nc4c3F)ccc(F)c2s1 (stereo partly drawn) [Example 85, (1-(7-(2-amino-7-fluorobenzo[d]thiazol-4-yl)-8-fluoro-2-(((2R,7aS)-2-fluorotetrahydro-1H-pyrrolizin-7a(5H)-yl)methoxy)-6-(trifluoromethyl)quinazolin-4-yl)azepan-4-yl)methanol] | 2.3 nM |
| Nc1nc2c(-c3c(C(F)(F)F)cc4c(N5CC[C@H](F)C5)nc(OC[C@@]56CCCN5C[C@H](F)C6)nc4c3F)ccc(F)c2s1 [Example 52, 7-fluoro-4-(8-fluoro-4-((S)-3-fluoropyrrolidin-1-yl)-2-(((2R,7aS)-2-fluorotetrahydro-1H-pyrrolizin-7a(5H)-yl)methoxy)-6-(trifluoromethyl)quinazolin-7-yl)benzo[d]thiazol-2-amine] | 19 nM |
| N#CCCC1CN(c2nc(OC[C@@]34CCCN3C[C@H](F)C4)nc3c(F)c(-c4ccc(F)c5sc(N)nc45)c(C(F)(F)F)cc23)C1 [Example 41, 3-(1-(7-(2-amino-7-fluorobenzo[d]thiazol-4-yl)-8-fluoro-2-(((2R,7aS)-2-fluorotetrahydro-1H-pyrrolizin-7a(5H)-yl)methoxy)-6-(trifluoromethyl)quinazolin-4-yl)azetidin-3-yl)propanenitrile] | 12 nM |
| CC1CN(c2nc(OC[C@@]34CCCN3C[C@H](F)C4)nc3c(F)c(-c4ccc(F)c5sc(N)nc45)c(C(F)(F)F)cc23)CCC1C#N (stereo partly drawn) [Example 73, 1-(7-(2-amino-7-fluorobenzo[d]thiazol-4-yl)-8-fluoro-2-(((2R,7aS)-2-fluorotetrahydro-1H-pyrrolizin-7a(5H)-yl)methoxy)-6-(trifluoromethyl)quinazolin-4-yl)-3-methylpiperidine-4-carbonitrile] | 6.8 nM |
| CC[C@H]1COCCN1c1nc(OC[C@@]23CCCN2C[C@H](F)C3)nc2c(F)c(-c3cc(N)cc(Cl)c3C(F)(F)F)ncc12 [Example 116, 3-chloro-5-(4-((S)-3-ethylmorpholino)-8-fluoro-2-(((2R,7aS)-2-fluorotetrahydro-1H-pyrrolizin-7a(5H)-yl)methoxy)pyrido[4,3-d]pyrimidin-7-yl)-4-(trifluoromethyl)aniline] | 4.4 nM |
| Nc1nc2c(-c3c(C(F)(F)F)cc4c(N[C@H]5C[C@H](O)C5)nc(OC[C@@]56CCCN5C[C@H](F)C6)nc4c3F)ccc(F)c2s1 [Example 12, (trans)-3-((7-(2-amino-7-fluorobenzo[d]thiazol-4-yl)-8-fluoro-2(((2R,7aS)-2-fluorotetrahydro-1H-pyrrolizin-7a(5H)-yl)methoxy)-6-(trifluoromethyl)quinazolin-4-yl)amino)cyclobutan-1-ol] | 3.7 nM |
| CCC1CC1Nc1nc(OC[C@@]23CCCN2C[C@H](F)C3)nc2c(F)c(-c3ccc(F)c4sc(N)nc34)c(C(F)(F)F)cc12 (stereo partly shown) [Example 4] | 29 nM |
| CC1C(O)CN1c1nc(OC[C@@]23CCCN2C[C@H](F)C3)nc2c(F)c(-c3ccc(F)c4sc(N)nc34)c(C(F)(F)F)cc12 (stereo partly drawn) [Example 47, 1-(7-(2-amino-7-fluorobenzo[d]thiazol-4-yl)-8-fluoro-2-(((2R,7aS)-2-fluorotetrahydro-1H-pyrrolizin-7a(5H)-yl)methoxy)-6-(trifluoromethyl)quinazolin-4-yl)-2-methylazetidin-3-ol] | 1.9 nM |
| CN1CC2(CCN(c3nc(OC[C@@]45CCCN4C[C@H](F)C5)nc4c(F)c(-c5ccc(F)c6sc(N)nc56)c(C(F)(F)F)cc34)CC2)CC1=O [Example 97, 8-(7-(2-amino-7-fluorobenzo[d]thiazol-4-yl)-8-fluoro-2-(((2R,7aS)-2-fluorotetrahydro-1H-pyrrolizin-7a(5H)-yl)methoxy)-6-(trifluoromethyl)quinazolin-4-yl)-2-methyl-2,8-diazaspiro[4.5]decan-3-one] | 3.8 nM |
| Nc1nc2c(-c3c(C(F)(F)F)cc4c(N5CC[C@H](O)C5)nc(OC[C@@]56CCCN5C[C@H](F)C6)nc4c3F)ccc(F)c2s1 [Example 64, (3S)-1-(7-(2-amino-7-fluorobenzo[d]thiazol-4-yl)-8-fluoro-2-(((2R,7aS)-2-fluorotetrahydro-1H-pyrrolizin-7a(5H)-yl)methoxy)-6-(trifluoromethyl)quinazolin-4-yl)pyrrolidin-3-ol] | 4.3 nM |
| Nc1nc2c(-c3c(Cl)cc4c(NC56CC(C5)C6)nc(OC[C@@]56CCCN5C[C@H](F)C6)nc4c3F)ccc(F)c2s1 [Example 32, 4-(4-(bicyclo[1.1.1]pentan-1-ylamino)-6-chloro-8-fluoro-2-(((2R,7aS)-2-fluorotetrahydro-1H-pyrrolizin-7a(5H)-yl)methoxy)quinazolin-7-yl)-7-fluorobenzo[d]thiazol-2-amine] | 21 nM |
| COC1CN(c2nc(OC[C@@]34CCCN3C[C@H](F)C4)nc3c(F)c(-c4ccc(F)c5sc(N)nc45)c(C(F)(F)F)cc23)C1 [Example 45, 7-fluoro-4-(8-fluoro-2-(((2R,7aS)-2-fluorotetrahydro-1H-pyrrolizin-7a(5H)-yl)methoxy)-4-(3-methoxyazetidin-1-yl)-6-(trifluoromethyl)quinazolin-7-yl)benzo[d]thiazol-2-amine] | 15 nM |
| Nc1nc2c(-c3c(C(F)(F)F)cc4c(N5CCC6(CC5)CN(CC(F)(F)F)C(=O)O6)nc(OC[C@@]56CCCN5C[C@H](F)C6)nc4c3F)ccc(F)c2s1 [Example 91, 8-(7-(2-amino-7-fluorobenzo[d]thiazol-4-yl)-8-fluoro-2-(((2R,7aS)-2-fluorotetrahydro-1H-pyrrolizin-7a(5H)-yl)methoxy)-6-(trifluoromethyl)quinazolin-4-yl)-3-(2,2,2-trifluoroethyl)-1-oxa-3,8-diazaspiro[4.5]decan-2-one] | 3.8 nM |
| N#CC1CCN(c2nc(OC[C@@]34CCCN3C[C@H](F)C4)nc3c(F)c(-c4ccc(F)c5sc(N)nc45)c(C(F)(F)F)cc23)CC1F (stereo partly drawn) [Example 72, 1-(7-(2-amino-7-fluorobenzo[d]thiazol-4-yl)-8-fluoro-2-(((2R,7aS)-2-fluorotetrahydro-1H-pyrrolizin-7a(5H)-yl)methoxy)-6-(trifluoromethyl)quinazolin-4-yl)-3-fluoropiperidine-4-carbonitrile] | 2 nM |
| Nc1nc2c(-c3c(Cl)cc4c(NC5CCC5)nc(OC[C@@]56CCCN5C[C@H](F)C6)nc4c3F)ccc(F)c2s1 [Example 31, 4-(6-chloro-4-(cyclobutylamino)-8-fluoro-2-(((2R,7aS)-2-fluorotetrahydro-1H-pyrrolizin-7a(5H)-yl)methoxy)quinazolin-7-yl)-7-fluorobenzo[d]thiazol-2-amine] | 57 nM |
| Cc1cc(N)nc(-c2c(Cl)cc3c(N4CC[C@H](O)C4)nc(OC[C@@]45CCCN4C[C@H](F)C5)nc3c2F)c1C(F)(F)F [Example 102, (3S)-1-(7-(6-amino-4-methyl-3-(trifluoromethyl)pyridin-2-yl)-6-chloro-8-fluoro-2-(((2R,7aS)-2-fluorotetrahydro-1H-pyrrolizin-7a(5H)-yl)methoxy)quinazolin-4-yl)pyrrolidin-3-ol] | 46 nM |
| C[C@@]1(O)CCCN(c2nc(OC[C@@]34CCCN3C[C@H](F)C4)nc3c(F)c(-c4ccc(F)c5sc(N)nc45)c(C(F)(F)F)cc23)C1 [Example 80, (3R)-1-(7-(2-amino-7-fluorobenzo[d]thiazol-4-yl)-8-fluoro-2-(((2R,7aS)-2-fluorotetrahydro-1H-pyrrolizin-7a(5H)-yl)methoxy)-6-(trifluoromethyl)quinazolin-4-yl)-3-methylpiperidin-3-ol] | 17 nM |
| CC1CN(c2nc(OC[C@@]34CCCN3C[C@H](F)C4)nc3c(F)c(-c4ccc(F)c5sc(N)nc45)c(C(F)(F)F)cc23)C1 [Example 34, 7-fluoro-4-(8-fluoro-2-(((2R,7aS)-2-fluorotetrahydro-1H-pyrrolizin-7a(5H)-yl)methoxy)-4-(3-methylazetidin-1-yl)-6-(trifluoromethyl)quinazolin-7-yl)benzo[d]thiazol-2-amine] | 52 nM |
| Nc1cc(Cl)c(C(F)(F)F)c(-c2ncc3c(N4CCO[C@H](CO)C4)nc(OC[C@@]45CCCN4C[C@H](F)C5)nc3c2F)c1 [Example 120, ((2S)-4-(7-(5-amino-3-chloro-2-(trifluoromethyl)phenyl)-8-fluoro-2-((2-fluorotetrahydro-1H-pyrrolizin-7a(5H)-yl)methoxy)pyrido[4,3-d]pyrimidin-4-yl)morpholin-2-yl)methanol] | 6.6 nM |
| Nc1nc2c(-c3c(C(F)(F)F)cc4c(N5CCC6(CC5)CNC(=O)CO6)nc(OC[C@@]56CCCN5C[C@H](F)C6)nc4c3F)ccc(F)c2s1 [Example 98, 9-(7-(2-amino-7-fluorobenzo[d]thiazol-4-yl)-8-fluoro-2-(((2R,7aS)-2-fluorotetrahydro-1H-pyrrolizin-7a(5H)-yl)methoxy)-6-(trifluoromethyl)quinazolin-4-yl)-1-oxa-4,9-diazaspiro[5.5]undecan-3-one] | 51 nM |
| Nc1nc2c(-c3c(C(F)(F)F)cc4c(N5CCCCC5)nc(OC[C@@]56CCCN5C[C@H](F)C6)nc4c3F)ccc(F)c2s1 [Example 67, 7-fluoro-4-(8-fluoro-2-(((2R,7aS)-2-fluorotetrahydro-1H-pyrrolizin-7a(5H)-yl)methoxy)-4-(piperidin-1-yl)-6-(trifluoromethyl)quinazolin-7-yl)benzo[d]thiazol-2-amine] | 30 nM |
